Converted amounts (≈) assume the structure as drawn. Like-named read-outs stand apart in the source and are kept apart here.
Assays:
[1] = cited from earlier work
[2] = test system: Giardia lamblia; conditions: background statement, human infection; cited from earlier work
[3] = test system: Trichomonas foetus; test: In vitro anti-Trichomonas foetus activity (growth inhibition, viable cell count); format: cell-based, T. foetus KV1; conditions: for IC50: Tritrichomonas foetus, read-out: Anti-T. foetus ED50
[4] = test system: Giardia lamblia; test: In vitro anti-Giardia lamblia activity (growth inhibition, viable cell count by hemacytometer); format: cell-based; conditions: Giardia duodenalis, read-out: Anti-G. lamblia ED50
Experimental: About 1.0-2.0 ml of a nutrient medium, for example, the modified Diamond's TPS medium at pH 7.05, together with about 10% by volume of heat-inactivated serum and about 1% by volume of antibiotic-antimycotic solution is placed in each well of a multiwell plate. To this mixture, an aliquot of a suspension of G. lamblia cells containing about 10^6 organisms is added. Subsequently, each well is inoculated with a known concentration of one of the active compounds. The multiwell plate containing the individual culture samples is incubated under anaerobic conditions at about 37° C. for about 16-24 hrs. The number of viable cells remaining in each well are then counted, such as with a hemacytometer. […]
In each well of a mutliwell plate is placed 1.4 ml of media mix containing Diamond's TPS medium (see Table 2) at pH 7.05, 10% by volume of heat-inactivated fetal bovine serum, and 1% by volume of an antibiotic-antimycotic solution (see Table 3). […] The cells are resuspended in a small volume of the Diamond's medium, counted, and each well inoculated with approximately 10^6 organisms. […] After 24 hours of incubation each well is mixed and counted for viable organisms using a hemacytometer. The percentage of survival is determined by comparing the treated wells to controls treated with dimethylsulfoxide. […]

[5] = test system: T. vaginalis; test: anti-T. vaginalis activity; format: cell-based, Trichomonas vaginalis; conditions: as shown in Table 1

For `CCN(CC)CCCC(C)Nc1c2ccc(Cl)cc2nc2ccc(OC)cc12` (stereo not drawn) [Atabrine], the “adverse side effects (in words)” value ([1]; in vivo) is listed as “known to cause adverse side effects” and the “treatment of giardiasis (in words)” value [2] is listed as “successfully treated”.

For `O=c1[nH]cc(F)c(=O)[nH]1` [fluorouracil, 5-fluoro-2,4-(1H, 3H)pyrimidenedione], the “anti-T. foetus activity (in words)” value ([3]; 37° C., 24 hours) was “effective anti-T. foetus agent”, the IC50 ([3]; 24 h) was 3 µg/mL (≈ 23.1 µM) and the IC50 [4] was 100 µg/mL (≈ 769 µM).

For `Cc1ncc([N+](=O)[O-])n1CCO` [Flagyl, metronidazole], the “adverse side effects (in words)” value ([1]; in vivo) is listed as “known to cause adverse side effects” and the “treatment of giardiasis (in words)” value [2] is listed as “successfully treated”.

In the case of `O=C1OCCN1N=Cc1ccc([N+](=O)[O-])o1` [furazolidione], the “adverse side effects (in words)” value ([1]; background statement) is listed as “known to cause adverse side effects” and the “treatment of giardiasis (in words)” value [2] is listed as “successfully treated”.

In the case of `[O-][n+]1ccnc(O)c1` [emimycin, 2-hydroxypyrazine-4-oxide], the “anti-T. vaginalis activity (in words)” value [5] is reported as “active anti-T. vaginalis agents”, the IC50 ([3]; effective concentration for 50% inhibition of growth, 37° C., 24 hours, T. foetus KV1) is reported as under 1 µg/mL and the IC50 ([4]; effective concentration for 50% inhibition of growth, 37° C., anaerobic, about 16-24 hrs (24 hours in Example 1)) is reported as 22 µg/mL (≈ 196 µM).

Source: patent US4401671A, “Treatment of giardiasis and trichomoniasis” (priority 1982, dated 1983)
